Data reported in patent US7807181B2, “Neisseria mutants, lipooligosaccharides and immunogenic compositions” (Emory University, priority 2002, dated 2010).

How the values were obtained:
[1] = biological target: T1, CD14/TLR4-MD-2 receptor complex (Homo sapiens, UniProt O00206+Q9Y6Y9); assay: Activation of receptor complex by synthetic KDO; assay type: cell-based; conditions: dose ranges from 10 ng-100 mg; data not shown
T1 construct: endogenous in cells
Text: Acid hydrolysis might affect lipid A phosphate head groups and contribute to attenuation.

[2] = tested on: Psf protein (arabinose 5-phosphate isomerase); assay: Colorimetric assay for keto-pentoses with purified Psf protein; assay type: biochemical, N. meningitidis; conditions: 37° C., 10 min, 100 mM Tris-HCl pH 7.5, A540
Text: Psf is the arabinose 5-phosphate isomerase of N. meningitidis. […] To determine if Psf had isomerase activity, a colorimetric assay for keto-pentoses (Bigham et al., 1984) was first conducted using the purified Psf protein, which contained a C-terminal 6×His tag (FIG. 9A). […] The reaction was dependent on the concentration of Psf protein. […] The NMR chemical shifts of the phosphoryl groups of arabinose 5-P and ribulose 5-P are different, thus ^31P NMR can monitor the interconversion between the two sugars. […] The LOS defect in the psf mutant, but not the kdsB mutant, can be complemented by (exogenous) supplementation of arabinose in the growth medium (FIG. 9B), consistent with the identification of the Psf protein as an arabinose 5-phosphate isomerase.
The procedure of Dische and Borenfreund (Dische and Borenfreund, 1951, as modified by Bigham (Bigham, 1984) was used to determine the presence of ketopentoses. Briefly, enzyme was incubated at 37° C. for 10 min in the presence of various aldopentoses (ribose 5-phosphate, erythrose 4-phosphate, glucose 6-phosphate, and arabinose) and 100 mM Tris-HCl (pH 7.5) buffer and assayed as follows. A 250 μl aliquot of the reaction solution was quenched with the addition of 50 μl of a 1.5% cysteine solution followed immediately by 1.5 ml of concentrated H2S04. A 50 μl aliquot of 0.12% carbazole in 95% ethanol was then added, and the solution was heated at 37° C. for 30 min. The absorbance was read at 540 nm. As reported by Bigham et al. (1984), the conversion of 1 μmol of A5P to 1 μmol of Ru5P gave an ΔA of 8.2.

[3] = tested on: differentiated U937 and THP-1 human macrophage-like cells; assay: Cytokine (TNFa, IL-1b, IL-8, IL-10) induction in macrophage-like cells stimulated with endotoxin; assay type: cell-based; conditions: 2 mg/ml added during the induction assay
Text: The meningococcal mutant LOS preparations were used to investigate the role of endotoxin structure on the activation of macrophages via the CD14/TLR4-MD-2 receptor complex. Endotoxins were quantified and standardized based on lipid A content. Cytokine (TNFa, IL-1b, IL-8 or IL-10) induction, nitric oxide and reactive oxygen species (ROS) release from differentiated U937 and THP-1 human macrophage-like cells or RAW264.7 murine macrophages stimulated with endotoxin (0.56 pmole/ml, approximately 1 ng/ml) was studied.
Alternatively, LOS from a genetically-defined mutants of the serogroup B N. meningitidis strain NMB (encapsulated, L2 immunotype) (listed in Table I) were initially extracted by the phenol-water method (21). Residual membrane phospholipids (unsaturated fatty acyl residues C18:0) were removed by repeated extraction of the dry LOS samples with 9:1 ethanol:water. The expected LOS fatty acyl components of 3-OHC12:0, 3-OHC14:0 and C12:0 and the absence of membrane phospholipids was assessed by Mass spectroscopy (GC-MS). LOS preparations were examined by SDS-PAGE (22), quantitated and standardized based on the number of lipid A molecules per sample (23). […] The resulting methyl b-trimethylsilylmyristate was identified and quantified by GC-MS analysis. […]

T1 sequence (O00206 24-839): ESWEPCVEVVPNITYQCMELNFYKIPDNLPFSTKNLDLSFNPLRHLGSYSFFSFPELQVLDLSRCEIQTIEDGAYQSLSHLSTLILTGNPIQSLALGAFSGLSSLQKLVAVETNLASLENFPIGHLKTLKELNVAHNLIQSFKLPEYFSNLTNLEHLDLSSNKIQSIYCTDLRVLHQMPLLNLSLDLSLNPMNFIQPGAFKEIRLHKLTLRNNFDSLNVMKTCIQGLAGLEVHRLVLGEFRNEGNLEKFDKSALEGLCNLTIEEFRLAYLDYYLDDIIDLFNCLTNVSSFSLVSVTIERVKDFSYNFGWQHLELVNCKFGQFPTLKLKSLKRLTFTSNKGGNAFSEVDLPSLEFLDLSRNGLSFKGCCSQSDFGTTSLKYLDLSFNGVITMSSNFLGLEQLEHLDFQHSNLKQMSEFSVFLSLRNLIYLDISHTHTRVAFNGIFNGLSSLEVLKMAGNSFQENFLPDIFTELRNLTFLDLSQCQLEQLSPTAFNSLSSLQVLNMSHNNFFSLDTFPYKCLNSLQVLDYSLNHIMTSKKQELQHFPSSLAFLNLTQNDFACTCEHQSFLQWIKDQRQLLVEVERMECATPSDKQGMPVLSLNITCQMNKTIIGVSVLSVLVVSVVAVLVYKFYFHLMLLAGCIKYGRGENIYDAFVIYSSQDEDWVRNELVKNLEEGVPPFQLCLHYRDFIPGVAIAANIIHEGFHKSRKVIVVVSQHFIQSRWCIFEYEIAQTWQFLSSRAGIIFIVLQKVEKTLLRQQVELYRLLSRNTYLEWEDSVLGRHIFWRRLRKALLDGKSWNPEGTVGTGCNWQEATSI
T1 sequence (Q9Y6Y9 19-160): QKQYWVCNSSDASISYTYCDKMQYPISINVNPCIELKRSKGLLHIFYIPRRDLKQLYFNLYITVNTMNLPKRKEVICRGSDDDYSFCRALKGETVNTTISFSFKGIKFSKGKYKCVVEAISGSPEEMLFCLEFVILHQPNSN

O=C(O)C(=O)CC(O)C(O)C(O)C(O)CO (stereo not drawn) [Synthetic KDO, 2-keto-3-deoxyoctonic acid]
activation of the CD14/TLR4-MD-2 receptor complex [1]: did not activate

O=C[C@@H](O)[C@H](O)[C@H](O)CO [arabinose]
substrate for the Psf protein [2]: did not serve as substrates

O=C[C@H](O)[C@H](O)COP(=O)(O)O [erythrose 4-phosphate]
substrate for the Psf protein [2]: did not serve as substrates

O=C[C@H](O)[C@@H](O)[C@H](O)[C@H](O)COP(=O)(O)O [glucose 6-phosphate]
substrate for the Psf protein [2]: did not serve as substrates

O=C[C@H](O)[C@H](O)[C@H](O)COP(=O)(O)O [ribose 5-phosphate]
substrate for the Psf protein [2]: did not serve as substrates

polymyxin B
effect on meningococcal LOS-induced cytokine release [3]: neutralized
